Laboratory results as given in patent publication US20250302815A1, “PROTEIN TYROSINE PHOSPHATASE TARGETING LIGANDS” (CALICO LIFE SCIENCES LLC, priority 2021, published 2025).

Experiments:
[1] = biological target: T1, PTPN2 (HiBIT-PTPN2 in 293T.109 cells) (Homo sapiens, UniProt P17706); experiment: HiBiT Degradation 293T.109 PTPN2 (Nano-Glo HiBiT Lytic Assay); format: cell-based; details: 24.0 hours
T1 construct: expressed in transfected cells; host or cells: 293T.109 (293T WT from ATCC)
T1 sequence (P17706 1-415): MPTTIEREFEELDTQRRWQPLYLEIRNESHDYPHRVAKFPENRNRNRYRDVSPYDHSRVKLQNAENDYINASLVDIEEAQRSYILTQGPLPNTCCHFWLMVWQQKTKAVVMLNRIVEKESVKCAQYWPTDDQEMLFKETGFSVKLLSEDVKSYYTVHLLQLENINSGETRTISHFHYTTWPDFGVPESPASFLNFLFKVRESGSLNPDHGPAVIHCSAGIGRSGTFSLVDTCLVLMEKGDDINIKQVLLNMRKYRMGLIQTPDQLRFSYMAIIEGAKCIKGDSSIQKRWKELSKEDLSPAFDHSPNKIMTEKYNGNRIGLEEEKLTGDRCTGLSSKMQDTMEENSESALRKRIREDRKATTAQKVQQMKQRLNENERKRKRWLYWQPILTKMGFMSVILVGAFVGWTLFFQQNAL
Summary of the method: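 Degradation read-out: lytic HiBiT luminescence after 24 h treatment (37 °C, 5% CO2) of 5000 293T cells per well expressing HiBiT-fused PTPN2 from an N-terminal tag. Dosing was 11 points, half-log steps down from 10 μM, in duplicate; vehicle-treated and no-reagent wells served as controls.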

PTPN2 (B16F10.4 cells) = biological target: T2, PTPN2 (B16F10.4 cells) (Mus musculus, UniProt Q06180); experiment: HiBiT Degradation B16F10.4 PTPN2; format: cell-based; details: 24.0 hours
T2 construct: HiBiT; host or cells: B16F10.4
T2 sequence (Q06180 1-406): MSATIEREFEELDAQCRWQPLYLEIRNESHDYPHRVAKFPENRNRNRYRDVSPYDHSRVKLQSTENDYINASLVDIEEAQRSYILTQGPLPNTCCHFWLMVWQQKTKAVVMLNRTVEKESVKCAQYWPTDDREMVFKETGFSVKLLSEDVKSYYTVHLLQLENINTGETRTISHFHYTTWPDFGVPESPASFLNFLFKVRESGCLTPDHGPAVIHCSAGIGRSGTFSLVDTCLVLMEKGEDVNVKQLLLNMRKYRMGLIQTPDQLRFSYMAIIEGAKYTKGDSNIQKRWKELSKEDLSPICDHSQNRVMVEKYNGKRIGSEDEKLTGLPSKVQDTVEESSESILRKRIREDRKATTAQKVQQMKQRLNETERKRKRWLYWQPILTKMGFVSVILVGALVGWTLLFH

| DC50 [1] [nM] | DC50 (PTPN2 (B16F10.4 cells)) [nM] | SMILES |
| --- | --- | --- |
| 50 to 200 | < 50 | CC1(C)C[C@@H](Nc2cccc(-c3sc(C(=O)O)c(OCC(=O)O)c3Cl)c2)CCN1S(=O)(=O)Cc1cc(NC(=O)N2CCC(c3ccc4c5c(cccc35)C(=O)N4C3CCC(=O)NC3=O)CC2)ccc1F (stereo partly drawn) [Example 161, 3-(carboxymethoxy)-4-chloro-5-[3-[[(4S)-1-[[5-[[4-[1-(2,6-dioxo-3-piperidyl)-2-oxo-benzo[cd]indol-6-yl]piperidine-1-carbonyl]amino]-2-fluoro-phenyl]methylsulfonyl]-2,2-dimethyl-4-piperidyl]amino]phenyl]thiophene-2-carboxylic acid] |
| 50 to 200 | 50 to 200 | CC1(C)C[C@@H](Nc2cccc(-c3sc(C(=O)O)c(OCC(=O)O)c3Cl)c2)CCN1S(=O)(=O)Cc1cccc(NC(=O)N2CCCN(c3ccc4c5c(cccc35)C(=O)N4C3CCC(=O)NC3=O)CC2)c1 (stereo partly drawn) [Example 163, 3-(carboxymethoxy)-4-chloro-5-(3-(((4S)-1-((3-(4-(1-(2,6-dioxopiperidin-3-yl)-2-oxo-1,2-dihydrobenzo[cd]indol-6-yl)-1,4-diazepane-1-carboxamido)benzyl)sulfonyl)-2,2-dimethylpiperidin-4-yl)amino)phenyl)thiophene-2-carboxylic acid] |
| < 50 | < 50 | Cn1c(=O)n(C2CCC(=O)NC2=O)c2ccc([C@H]3CCN(C(=O)Nc4cccc(CS(=O)(=O)N5CC[C@H](Nc6cccc(-c7sc(C(=O)O)c(OCC(=O)O)c7Cl)c6)CC5(C)C)c4)C[C@@H]3F)cc21 (stereo partly drawn) [Example 171] |
| 50 to 200 | < 50 | O=C(O)COc1c(C(=O)O)sc(-c2cccc(NC3CCN(S(=O)(=O)Cc4cccc(NC(=O)N5CCC(c6ccc7c8c(cccc68)C(=O)N7C6CCC(=O)NC6=O)CC5)c4)CC3)c2)c1Cl (stereo not drawn) [Example 173, 3-(carboxymethoxy)-4-chloro-5-[3-[[1-[[3-[[4-[1-(2,6-dioxo-3-piperidyl)-2-oxo-benzo[cd]indol-6-yl]piperidine-1-carbonyl]amino]phenyl]methylsulfonyl]-4-piperidyl]amino]phenyl]thiophene-2-carboxylic acid] |

More lines, now with the values behind:

| SMILES | DC50 [1] [nM] | DC50 (PTPN2 (B16F10.4 cells)) [nM] |
| --- | --- | --- |
| CC1(C)C[C@H](Nc2cccc(-c3sc(C(=O)O)c(OCC(=O)O)c3Cl)c2)CCN1S(=O)(=O)Cc1cc(NC(=O)N2CCC(c3ccc4c5c(cccc35)C(=O)N4C3CCC(=O)NC3=O)CC2)ccc1F (stereo partly drawn) [Example 162] | 200 to 1000 | < 50 |
| CC1(C)C[C@@H](Nc2cccc(-c3sc(C(=O)O)c(OCC(=O)O)c3Cl)c2)CCN1S(=O)(=O)Cc1cccc(NC(=O)[C@H]2CC[C@H](c3ccc4c5c(cccc53)C(=O)N4C3CCC(=O)NC3=O)CC2)c1 (stereo partly drawn) [Example 165, 3-(carboxymethoxy)-4-chloro-5-(3-(((4S)-1-((3-((1r,4S)-4-(1-(2,6-dioxopiperidin-3-yl)-2-oxo-1,2-dihydrobenzo[cd]indol-6-yl)cyclohexane-1-carboxamido)benzyl)sulfonyl)-2,2-dimethylpiperidin-4-yl)amino)phenyl)thiophene-2-carboxylic acid] | < 50 | < 50 |
| CC1(C)C[C@@H](Nc2cccc(-c3sc(C(=O)O)c(OCC(=O)O)c3Cl)c2)CCN1S(=O)(=O)Cc1cccc(NC(=O)[C@H]2CC[C@@H](c3ccc4c5c(cccc53)C(=O)N4C3CCC(=O)NC3=O)CC2)c1 (stereo partly drawn) [Example 166, 3-(carboxymethoxy)-4-chloro-5-(3-(((4S)-1-((3-((1s,4R)-4-(1-(2,6-dioxopiperidin-3-yl)-2-oxo-1,2-dihydrobenzo[cd]indol-6-yl)cyclohexane-1-carboxamido)benzyl)sulfonyl)-2,2-dimethylpiperidin-4-yl)amino)phenyl)thiophene-2-carboxylic acid] | 50 to 200 | 50 to 200 |
| Cn1c(=O)n(C2CCC(=O)NC2=O)c2ccc([C@H]3CCN(C(=O)Nc4cccc(CS(=O)(=O)N5CC[C@H](Nc6cccc(-c7sc(C(=O)O)c(OCC(=O)O)c7Cl)c6)CC5(C)C)c4)CC3(F)F)cc21 (stereo partly drawn) [Example 168, 3-(carboxymethoxy)-4-chloro-5-(3-(((4S)-1-((3-((4R)-4-(1-(2,6-dioxopiperidin-3-yl)-3-methyl-2-oxo-2,3-dihydro-1H-benzo[d]imidazol-5-yl)-3,3-difluoropiperidine-1-carboxamido)benzyl)sulfonyl)-2,2-dimethylpiperidin-4-yl)amino)phenyl)thiophene-2-carboxylic acid] | 50 to 200 | < 50 |
| Cn1c(=O)n(C2CCC(=O)NC2=O)c2ccc([C@@H]3CCN(C(=O)Nc4cccc(CS(=O)(=O)N5CC[C@H](Nc6cccc(-c7sc(C(=O)O)c(OCC(=O)O)c7Cl)c6)CC5(C)C)c4)CC3(F)F)cc21 (stereo partly drawn) [Example 169, 3-(carboxymethoxy)-4-chloro-5-(3-(((4S)-1-((3-((4S)-4-(1-(2,6-dioxopiperidin-3-yl)-3-methyl-2-oxo-2,3-dihydro-1H-benzo[d]imidazol-5-yl)-3,3-difluoropiperidine-1-carboxamido)benzyl)sulfonyl)-2,2-dimethylpiperidin-4-yl)amino)phenyl)thiophene-2-carboxylic acid] | < 50 | < 50 |
| Cn1c(=O)n(C2CCC(=O)NC2=O)c2ccc(C3CCN(C(=O)Nc4cccc(CS(=O)(=O)N5CC[C@H](Nc6cccc(-c7sc(C(=O)O)c(OCC(=O)O)c7Cl)c6)CC5(C)C)c4)CC3F)cc21 (stereo partly drawn) [Example 170, 3-(carboxymethoxy)-4-chloro-5-[3-[[(4S)-1-[[3-[[4-[1-(2,6-dioxo-3-piperidyl)-3-methyl-2-oxo-benzimidazol-5-yl]-3-fluoro-piperidine-1-carbonyl]amino]phenyl]methylsulfonyl]-2,2-dimethyl-4-piperidyl]amino]phenyl]thiophene-2-carboxylic acid] | < 50 | < 50 |
| Cn1c(=O)n(C2CCC(=O)NC2=O)c2ccc(N3CCC(CCNC(=O)Nc4cccc(CS(=O)(=O)N5CC[C@H](Nc6cccc(-c7sc(C(=O)O)c(OCC(=O)O)c7Cl)c6)CC5(C)C)c4)CC3)cc21 (stereo partly drawn) [Example 174, 3-(carboxymethoxy)-4-chloro-5-[3-[[(4S)-1-[[3-[2-[1-[1-(2,6-dioxo-3-piperidyl)-3-methyl-2-oxo-benzimidazol-5-yl]-4-piperidyl]ethylcarbamoylamino]phenyl]methylsulfonyl]-2,2-dimethyl-4-piperidyl]amino]phenyl]thiophene-2-carboxylic acid] | < 50 | 50 to 200 |
| Cn1c(=O)n(C2CCC(=O)NC2=O)c2ccc(CC3CCN(C(=O)Nc4cccc(CS(=O)(=O)N5CC[C@H](Nc6cccc(-c7sc(C(=O)O)c(OCC(=O)O)c7Cl)c6)CC5(C)C)c4)CC3)cc21 (stereo partly drawn) [Example 175, 3-(carboxymethoxy)-4-chloro-5-[3-[[(4S)-1-[[3-[[4-[[1-(2,6-dioxo-3-piperidyl)-3-methyl-2-oxo-benzimidazol-5-yl]methyl]piperidine-1-carbonyl]amino]phenyl]methylsulfonyl]-2,2-dimethyl-4-piperidyl]amino]phenyl]thiophene-2-carboxylic acid] | 50 to 200 | < 50 |
